Laboratory results from patent publication US12529694B2, “Human in vitro cardiotoxicity model” (Brown University, priority 2019, dated 2026).
Like-named read-outs stand apart in the source and are kept apart here. Each block holds one compound with its values, some of them ahead of it.

Tests used:
hiPSC-CMLP microtissues = tested on: hiPSC-CMLP microtissues
From the text: Cardiomyocyte differentiation. The inventors differentiated cardiomyocytes (CMs) from human pluripotent stem cells; either human embryonic stem cells (hESCs, e.g. line RUES2) or human induced pluripotent stem cells (hiPSCs; Gibco human episomal iPSCs from CD34+ cord blood, ThermoFisher Scientific, NCRM-5 human episomal iPSCs from CD34+ cord blood, NIH Center for Regenerative Medicine, WTC11 GM25256 human episomal iPSCs from dermal fibroblasts, The Gladstone Institutes, UCSF) in high-density monolayer cultures. […] Human pluripotent stem cells were cultured on plates coated with truncated human vitronectin (Life Technologies) in Essential 8 medium (ThermoFisher). […] Medium was changed daily until initiation of differentiation (day 0), when cells were approximately 60-90% confluent. […] C-59 (Tocris) or 1 μM XAV939 (Tocris), all chemical Wnt inhibitors, at day 3. […] Some differentiating cells received 100 ng/ml neuregulin-1β (NRG1) daily on days 5-18 (until use in engineered tissues) and/or in engineered tissues. Some engineered tissues received 100 nM insulin-like growth factor 1 (IGF1) daily and/or 100 ng/ml NRG1 daily in engineered tissues. […] Some experiments used unpurified cells as controls and were matched for duration of culture for experiments. Cells undergoing metabolic-based lactate purification were assessed for density and beating visually, and left in the wells of the high-density monolayer cultures for lactate purification if density was high and beating was uniform across large areas of the wells. Cells not meeting these requirements for density and beating were replated at high density, 5-6×10^6 cells/cm^2 on Matrigel-coated 6 well plates in RPMI+B27 medium after 10-20 days of differentiation. All cells undergoing lactate purification were not fed for 4 days as a starvation period to encourage a switch in metabolism from glycolysis to oxidative phosphorylation in the cardiomyocytes, which are capable of this type of metabolism, while non-cardiomyocytes have a lower ability to switch the metabolic phenotype and therefore die, resulting in more pure populations of cardiomyocytes. […] Lactate purified cells were fed with RPMI+B27 until robust beating returned or appeared. Cardiac purity is assessed by flow cytometry analysis.
Fabrication of microtissue mold hydrogels and 3D microtissue culture. Scaffold-free three-dimensional microtissues (spheroid in shape, also called spheroids and/or organoids) are generated using non-adhesive agarose gels with cylindrical microwells with hemispherical bottoms to guide self-assembly. Sterilized 2% (wt/vol) agarose is pipetted into molds designed for 24-well plates with 800-μm-diameter rounded pegs (Microtissues, Providence, RI, USA). After being cooled to room temperature (˜5 minutes), the agarose gels are separated from the molds and transferred to single wells of 24-well plates. For equilibration, 1 mL medium is added to each well. Hydrogels are equilibrated at least one hour or overnight at 37° C. in a humidified incubator with 5% CO2. […]
Optical mapping and automated action potential duration analysis. […] Fluorescence images were filtered using nonlinear bilateral filter (spatial filter: 5×5 window, temporal filter: 21 point window) to preserve action potential upstrokes from blurring. Typically, four microtissues were recorded simultaneously/scan at this magnification.

rodents = conditions: greater sensitivity in female rats than male rats; increased with isoproterenol stimulation; cited from earlier work
hiPSC-CM microtissues = conditions: human
From the text: Fabrication of microtissue mold hydrogels and 3D microtissue culture. Scaffold-free three-dimensional microtissues (spheroid in shape, also called spheroids and/or organoids) are generated using non-adhesive agarose gels with cylindrical microwells with hemispherical bottoms to guide self-assembly. Sterilized 2% (wt/vol) agarose is pipetted into molds designed for 24-well plates with 800-μm-diameter rounded pegs (Microtissues, Providence, RI, USA). After being cooled to room temperature (˜5 minutes), the agarose gels are separated from the molds and transferred to single wells of 24-well plates. For equilibration, 1 mL medium is added to each well. Hydrogels are equilibrated at least one hour or overnight at 37° C. in a humidified incubator with 5% CO2. […] Medium is then added to each well (5 ml), and cells are cultured for 6-8 days with electrical field stimulation with a 1 Hz, 10.0 V, 4.0 ms duration bipolar pulse train for the full three-dimensional culture period (C-Pace EP, IonOptix).
Optical mapping and automated action potential duration analysis. The inventors used an Olympus MVX10 microscope to image 1.2×1.2-mm^2 regions. […] Fluorescence images were filtered using nonlinear bilateral filter (spatial filter: 5×5 window, temporal filter: 21 point window) to preserve action potential upstrokes from blurring. Typically, four microtissues were recorded simultaneously/scan at this magnification. […] The pixels with action potentials were identified from Fast Fourier transformation (FFT) of fluorescence signals. After appropriate thresholding and image segmentation, the region of each microtissue was grouped and the fluorescence signals from the pixels in the same microtissue were average and used for action potential analysis.
Validation and screening of toxicants for arrhythmogenic risk. […] Concentrations are selected to span human exposure levels or blood serum levels and quantify dose-dependent changes over a wide range (with a goal of more than 10,000× change in concentration and at least 4-6 doses). […]

[1] = Clinical exposure of ranolazine (FDA documentation); assay type: in vivo, human; conditions: dose of 1000 mg b.i.d., bracketed conversion
[2] = tested on: late sodium current (INa,late); conditions: read-out: IC50, late sodium current (INa,late) block; cited from earlier work
late ICa = conditions: cited from earlier work
INCX = conditions: cited from earlier work
peak ICa = conditions: cited from earlier work
[3] = cited from earlier work
[4] = tested on: human cardiac fibroblasts; test: Biochemical myofibroblast activation of human cardiac fibroblasts, αSMA immunofluorescence normalized by vimentin; assay type: cell-based; conditions: 10 ng/ml TGF-β1 for forty-eight hours; passage 4 hCFs
Method: The inventors next assessed the ability of human cardiac fibroblasts to be further activated via biochemical stimulation by treating passage 4 human cardiac fibroblasts with 10 ng/ml TGF-β1 for forty-eight hours. Cells were fixed and fluorescently labeled for αSMA and vimentin.

Compound: CC(C)(c1ccc(O)cc1)c1ccc(O)cc1 [BPA, bisphenol-A]
- APDtri (APD80-APD30) (hiPSC-CMLP microtissues): shorter
- concentration that shifts action potential duration measurements (hiPSC-CMLP microtissues): one
- excitability, pacing at 0.5 Hz (hiPSC-CMLP microtissues): fails to evoke action potentials
- APD30 and APD50 versus APD80 (hiPSC-CMLP microtissues; human, 20 min): APD30 and APD50 were shortened more than APD80
- concentration promoting arrhythmias (rodents): 0.001 µM

Compound: Cn1c(=O)c2c(ncn2C)n(C)c1=O [caffeine]
- action potential duration (hiPSC-CM microtissues; 5 mM): 90.5 ± 22.3 ms

- action potential duration (hiPSC-CM microtissues; 100 nM): 120.1±10.5
- average reduction of APD80 (hiPSC-CM microtissues; 100 nM): 45 ms
Compound: CC(C)NCC(O)c1ccc(O)c(O)c1 (stereo not drawn) [isoproterenol]

Compound: COc1ccccc1OCC(O)CN1CCN(CC(=O)Nc2c(C)cccc2C)CC1 (stereo not drawn) [ranolazine]
- APD changes over dose-response (hiPSC-CMLP microtissues): moderate APD changes within a safety criteria of QT prolongation
- Cmax ([1]; read-out: mean steady-state Cmax [in blood serum]): 6 µM
- Cmax ([1]; human, serum, read-out: 95% of Cmax values): 0.98 to 14.2 µM
- IC50 [2]: 5.9 µM
- IC50 (late ICa): 50 µM
- IC50 (INCX): 91 µM
- IC50 (peak ICa): 296 µM
- mean steady-state Cmax [in blood serum] ([3]; dose of 1000 mg b.i.d.): 2569 ng/mL
- therapeutic concentration ([3]; human, in vivo): 1 to 10 µM

Compound: TGF-β1: growth factor used for biochemical activation of human cardiac fibroblasts to a myofibroblast-like state
- increase in normalized αSMA fluorescence compared to control [4]: 1.2 fold
